Common to all, as to format: in vivo
In experiment [1] the test system is Avena fatua (AVEFA). Description: Test Example 1, pre-emergence herbicidal test. To be noted: 480 h, evaluated 20 days later, 100=total damage to plant, 0=no damage to plant. On the procedure: (§1) Monocotyledonous and dicotyledonous test plants were sown in standard soil in pots. After cultivation for one day (pre-emergence) or after 10 days cultivation (post-emergence) under controlled conditions in a glasshouse, the plants were sprayed with an aqueous spray solution derived from the formulation of the technical active ingredient in 0.6 ml acetone and 45 ml formulation solution containing 10.6% Emulsogen EL (Registry number 61791-12-6), 42.2% N-methylpyrrolidone, 42.2% dipropylene glycol monomethyl ether (Registry number 34590-94-8) and 0.2% X-77 (Registry number 11097-66-8). The test plants were then grown in a greenhouse under optimum conditions until, 15 days later for post-emergence and 20 days for pre-emergence, the test was evaluated (100=total damage to plant; 0=no damage to plant). Test Plants: Lolium perenne (LOLPE), Setaria faberi (SETFA), Digitaria sanguinalis (DIGSA), Alopecurus myosuroides (ALOMY), Echinochloa crus-galli (ECHCG) and Avena fatua (AVEFA), Pre-Emergence Data: […]

Experiment [2] has as its system Digitaria sanguinalis (DIGSA). Description: Test Example 1, pre-emergence herbicidal test. Particulars: 480 h, evaluated 20 days later, 100=total damage to plant, 0=no damage to plant. Here is the method:
as §1

The subject of experiment [3] is Lolium perenne (LOLPE). Description: Test Example 1, pre-emergence herbicidal test. Particulars: 480 h, evaluated 20 days later, 100=total damage to plant, 0=no damage to plant. On the procedure: as §1
The test system of experiment [4] is Alopecurus myosuroides (ALOMY). Description: Test Example 1, pre-emergence herbicidal test. To be noted: 480 h, evaluated 20 days later, 100=total damage to plant, 0=no damage to plant. On the procedure:
as §1

Experiment [5] relates to Echinochloa crus-galli (ECHCG). Nature of the experiment: Test Example 1, pre-emergence herbicidal test. Particulars: 480 h, evaluated 20 days later, 100=total damage to plant, 0=no damage to plant. Here is the method: as §1
Experiment [6] relates to Setaria faberi (SETFA). Nature of the experiment: Test Example 1, pre-emergence herbicidal test. Particulars: 480 h, evaluated 20 days later, 100=total damage to plant, 0=no damage to plant, read-out: SEFTA damage to plant. On the procedure: as §1
Experiment [7] relates to Avena fatua (AVEFA). Description: Test Example 1, post-emergence herbicidal test. Particulars: 360 h, evaluated 15 days later, 100=total damage to plant, 0=no damage to plant. Here is the method: as §1, with “Post-Emergence” for “Pre-Emergence”
Experiment [8] has as its system Digitaria sanguinalis (DIGSA). Nature of the experiment: Test Example 1, post-emergence herbicidal test. Particulars: 360 h, evaluated 15 days later, 100=total damage to plant, 0=no damage to plant. Here is the method:
as §1, with “Post-Emergence” for “Pre-Emergence”

The subject of experiment [9] is Lolium perenne (LOLPE). Nature of the experiment: Test Example 1, post-emergence herbicidal test. Particulars: 360 h, evaluated 15 days later, 100=total damage to plant, 0=no damage to plant. Here is the method:
as §1, with “Post-Emergence” for “Pre-Emergence”

Experiment [10] relates to Alopecurus myosuroides (ALOMY). Nature of the experiment: Test Example 1, post-emergence herbicidal test. Particulars: 360 h, evaluated 15 days later, 100=total damage to plant, 0=no damage to plant. On the procedure: as §1, with “Post-Emergence” for “Pre-Emergence”
Experiment [11] deals with Echinochloa crus-galli (ECHCG). Nature of the experiment: Test Example 1, post-emergence herbicidal test. To be noted: 360 h, evaluated 15 days later, 100=total damage to plant, 0=no damage to plant. Here is the method: as §1, with “Post-Emergence” for “Pre-Emergence”
The subject of experiment [12] is Setaria faberi (SETFA). Nature of the experiment: Test Example 1, post-emergence herbicidal test. To be noted: 360 h, evaluated 15 days later, 100=total damage to plant, 0=no damage to plant, read-out: SEFTA damage to plant. Here is the method: as §1, with “Post-Emergence” for “Pre-Emergence”

The source of these data is patent US20120065066A1, “NOVEL HERBICIDES” (SYNGENTA CROP PROTECTION LLC, priority 2009, published 2012).

Consider `CCc1cc(C)cc(CC)c1C1=C(O)[C@H]2[C@H]3CC[C@H](CC3)[C@H]2C1=O` (racemic) [Compound T48, rac-(7R,8S)-2-(2,6-diethyl-4-methylphenyl)hexahydro-4,7-ethanoindene-1,3-dione], for which the pest or weed control at 250 g/ha is 70% in the experiment on Avena fatua (AVEFA) [1]; 100% in experiment [2]; 100% with Lolium perenne (LOLPE) [3]; 100% in experiment [4]; 100% in [5]; 100% with Setaria faberi (SETFA) [6]. For the same compound, the pest or weed control at 125 g/ha in the experiment with Avena fatua (AVEFA) [7] turned out to be 70%; in experiment [8] it was 100%; with Lolium perenne (LOLPE) [9], 100%; in experiment [10], 80%; in experiment [11], 90%; in the experiment on Setaria faberi (SETFA) [12], 80%.
As for `Cc1cc(C)c(C2=C(O)[C@H]3[C@H]4CC[C@H](C4)[C@H]3C2=O)c(C)c1` (racemic) [Compound T50, rac-(5S,6S,7R)-2-(2,4,6-trimethylphenyl)hexahydro-4,7-methanoindene-1,3-dione], the pest or weed control at 250 g/ha came to 50% with Avena fatua (AVEFA) [1]; 80% in [2]; 100% in the experiment with Lolium perenne (LOLPE) [3]; 70% in [4]; 70% in experiment [5]; 100% with Setaria faberi (SETFA) [6]. In addition, the pest or weed control at 125 g/ha in the experiment on Avena fatua (AVEFA) [7] is 10%; in experiment [8], 30%; with Lolium perenne (LOLPE) [9], 30%; in experiment [10], 30%; in experiment [11] it was 20%; in the experiment on Setaria faberi (SETFA) [12], 0%.
As to `CCc1ccc(-c2ccc(Cl)cc2)cc1C1=C(O)[C@H]2C3CCC(C3=C(C)C)[C@H]2C1=O` (stereo partly drawn) [Compound T21], the pest or weed control at 250 g/ha with Avena fatua (AVEFA) [1] was determined as 20%; in experiment [2], 50%; with Lolium perenne (LOLPE) [3], 40%; in [4], 60%; in experiment [5], 30%; in the experiment with Setaria faberi (SETFA) [6] it was 60%. Also, the pest or weed control at 125 g/ha amounted to 20% in the experiment on Avena fatua (AVEFA) [7]; 20% in experiment [8]; 0% in the experiment on Lolium perenne (LOLPE) [9]; 20% in experiment [10]; 0% in experiment [11]; 20% in the experiment with Setaria faberi (SETFA) [12].
Consider `Cc1cc(C)c(C2=C(O)[C@H]3[C@H]4CC[C@H](CC4)[C@H]3C2=O)c(C)c1` [Compound T47], for which the pest or weed control at 250 g/ha in the experiment on Avena fatua (AVEFA) [1] came out at 50%; in experiment [2] it was 100%; in the experiment with Lolium perenne (LOLPE) [3] it was 80%; in [4], 90%; in [5], 70%; in the experiment with Setaria faberi (SETFA) [6], 100%. In addition, the pest or weed control at 125 g/ha with Avena fatua (AVEFA) [7] came out at 40%; in [8], 80%; in the experiment with Lolium perenne (LOLPE) [9], 40%; in experiment [10], 0%; in experiment [11], 60%; in the experiment on Setaria faberi (SETFA) [12] it was 60%.
In the case of `CCc1cc(C)cc(CC)c1C1=C(O)[C@H]2[C@H]3CC[C@H](C3)[C@H]2C1=O` [Compound T49], the pest or weed control at 250 g/ha with Avena fatua (AVEFA) [1] was 70%; in experiment [2] it was 100%; with Lolium perenne (LOLPE) [3], 100%; in experiment [4], 100%; in experiment [5], 100%; in the experiment with Setaria faberi (SETFA) [6] it was 100%. Also, the pest or weed control at 125 g/ha was 80% in the experiment with Avena fatua (AVEFA) [7]; 100% in [8]; 100% in the experiment on Lolium perenne (LOLPE) [9]; 100% in [10]; 100% in experiment [11]; 100% with Setaria faberi (SETFA) [12].
In the case of `CCc1cc(C)cc(CC)c1C1=C(O)[C@@H]2[C@H](C1=O)[C@@H]1CC[C@H]2C1=C(C)C` [Compound T51], the pest or weed control at 250 g/ha in the experiment on Avena fatua (AVEFA) [1] turned out to be 60%; in [2] it was 80%; in the experiment with Lolium perenne (LOLPE) [3], 100%; in experiment [4], 60%; in experiment [5], 90%; in the experiment on Setaria faberi (SETFA) [6], 80%. The pest or weed control at 125 g/ha in the experiment on Avena fatua (AVEFA) [7] turned out to be 0%; in experiment [8] it was 30%; with Lolium perenne (LOLPE) [9] it was 50%; in experiment [10], 30%; in experiment [11], 10%; in the experiment with Setaria faberi (SETFA) [12] it was 0%.
`CCc1cc(C)cc(CC)c1C1=C(O)[C@@H]2[C@H](C1=O)[C@H]1CC[C@@H]2C1=C(C)C` [Compound T52]: the pest or weed control at 250 g/ha in the experiment on Avena fatua (AVEFA) [1] stood at 60%; in experiment [2] it was 80%; in the experiment with Lolium perenne (LOLPE) [3] it was 70%; in [4] it was 50%; in experiment [5], 90%; in the experiment with Setaria faberi (SETFA) [6] it was 100%. Moreover, the pest or weed control at 125 g/ha with Avena fatua (AVEFA) [7] worked out at 20%; in experiment [8], 70%; in the experiment with Lolium perenne (LOLPE) [9], 50%; in experiment [10], 90%; in experiment [11], 80%; with Setaria faberi (SETFA) [12], 80%.
Regarding `Cc1cc(C)c(C2=C(O)[C@@H]3[C@H](C2=O)[C@@H]2C=C[C@H]3CC2)c(C)c1` [Compound T53], the pest or weed control at 250 g/ha in the experiment with Avena fatua (AVEFA) [1] amounted to 40%; in experiment [2], 80%; in the experiment with Lolium perenne (LOLPE) [3] it was 100%; in experiment [4] it was 70%; in experiment [5], 70%; in the experiment on Setaria faberi (SETFA) [6], 100%. The pest or weed control at 125 g/ha in the experiment on Avena fatua (AVEFA) [7] was determined as 0%; in experiment [8], 50%; in the experiment on Lolium perenne (LOLPE) [9] it was 30%; in experiment [10] it was 20%; in experiment [11], 60%; with Setaria faberi (SETFA) [12] it was 20%.
As for `CCc1cc(C)cc(CC)c1C1=C(O)[C@H]2[C@@H]3CC[C@@H](C(=O)C3)[C@H]2C1=O` [Compound T54], the pest or weed control at 250 g/ha with Avena fatua (AVEFA) [1] came to 70%; in experiment [2], 80%; in the experiment with Lolium perenne (LOLPE) [3], 90%; in experiment [4], 70%; in experiment [5], 70%; in the experiment with Setaria faberi (SETFA) [6] it was 80%. The pest or weed control at 125 g/ha is 60% in the experiment with Avena fatua (AVEFA) [7]; 80% in experiment [8]; 50% in the experiment on Lolium perenne (LOLPE) [9]; 60% in experiment [10]; 80% in experiment [11]; 80% in the experiment on Setaria faberi (SETFA) [12].
